Assay results published in paper PMC12298827, “Subchronic Toxicities of Four Per- and Polyfluoroalkyl Substances (PFASs) by Oral Exposure in Sprague–Dawley Rats” (Toxics, 2025).
Marks after values point to notes of the source that are not given here.

Test system: male and female Sprague–Dawley rats
Assay: 90-day subchronic oral gavage toxicity study
Assay type: in vivo, rat
Summary of the method: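 Ten rats per sex per group got corn-oil gavage (3 mL/kg) at five doses or vehicle for 90 days, necropsy on SD 91. Assessed weekly weights and food intake, neurobehavior (FOB, locomotor), eyes, terminal blood panels with plasma PFAS, organ weights and H&E histology; Dunnett's test against control, two-sided 0.05.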

## C=CC(=O)OCC(F)(F)C(F)(F)C(F)(F)C(F)(F)C(F)(F)C(F)(F)C(F)(F)C(F)F [PFNAC, 1H,1H,9H-Perfluorononyl acrylate]
90-day, both sexes, all doses
  Bodyweight (BW) and bodyweight gain: None in females; effects in males at 10 mg/kg-day were not considered adverse because they did not persist through the study (days 8–29)
  Clinical observations: None
  Coagulation endpoints: Males at ≥1 mg/kg-day, mildly shortened APTT, not considered as biologically significant
  Feed consumption: Increased in males and females in some dose groups during some time periods, not considered as adverse (not persistent or consistent although sometimes statistically significant)
  Functional observational battery: Some changes, all considered as incidental and non-adverse
  Gross lesions: None considered as PFNAC related
  Hematology: No changes in females; Males—minimal decreases in red cell mass (HGB, HCT, and RBC) at ≥0.1 mg/kg-day, minimal decreases in absolute reticulocytes at ≥1 mg/kg and from minimal to mild decreases in neutrophils and eosinophils at ≥0.1 mg/kg-day ^2
  Histopathology: The kidney and liver ^4 of males at ≥0.3 mg/kg-day and females at 30 mg/kg-day; the thyroid gland in males
  Locomotor activity: No effects
  Morbidity and mortality: None
  Ophthalmology: No ocular lesions
  Organ weight changes: Mean absolute and/or relative organ weight increases in the liver and kidneys of males at ≥0.3 mg/kg-day and females at ≥3 mg/kg-day
female
  BMD10, absolute kidney weight increase: 13.4 mg/kg-day
  BMD10, absolute liver weight increase: 11.2 mg/kg-day
  BMD10, relative kidney weight increase: 6.0 mg/kg-day
  BMD10, relative liver weight increase: 12.8 mg/kg-day
  BMDL, absolute kidney weight increase: 2.68 mg/kg-day
  BMDL, absolute liver weight increase: 8.8 mg/kg-day
  BMDL, relative kidney weight increase: 0.8 * mg/kg-day
  BMDL, relative liver weight increase: 10.1 mg/kg-day
  LOEL, absolute kidney weight increase: 10 mg/kg-day
  LOEL, absolute liver weight increase: 30 mg/kg-day
  LOEL, relative kidney weight increase: 3 mg/kg-day
  LOEL, relative liver weight increase: 30 mg/kg-day
  NOEL, absolute kidney weight increase: 3 mg/kg-day
  NOEL, absolute liver weight increase: 10 mg/kg-day
  NOEL, relative kidney weight increase: 1 mg/kg-day
  NOEL, relative liver weight increase: 10 mg/kg-day
female, 0.1 mg/kg-day
  A/G: 1.11±0.08 ratio
  ALB: 4.36 ± 0.22 g/dL
  ALPi: 78.0±24.1 U/L
  BUN: 15.7 ± 1.3 mg/dL
  CHOL: 102.1 ± 16.7 mg/dL
  GLOB: 3.93 ± 0.12 g/dL
  GLUC: 99.4 ± 11.9 mg/dL
female, 0.3 mg/kg-day
  % BW Gain: 47.16%
  % Diff, % BW Gain: -3.35%
  % Diff, Total BW change: -2.86%
  % Diff, Total Food Consumed: 4.16%
  A/G: 1.10±0.06 ratio
  ABEOS: 0.089±0.035 K/µL
  ABNEUT: 1.725±1.311 K/µL
  ABRETi: 188.23±26.07 10^9/L
  ALB: 4.44 ± 0.33 g/dL
  ALPi: 54.8±10.4 U/L
  APTT: 21.25 s
  BUN: 16.8 ± 3.3 mg/dL
  CHOL: 99.7 ± 15.0 mg/dL
  GLOB: 4.05 ± 0.18 g/dL
  GLUC: 104.6 ± 13.0 mg/dL
  HCT: 41.35±1.64%
  HGB: 13.21 ± 0.43 g/dL
  Kidney Weight: 1.74 g
  Kidney/Body Weight: 0.59%
  Kidney/Brain Weight: 91.4%
  Liver Weight: 7.76 g
  Liver/Body Weight: 2.62%
  Liver/Brain Weight: 408%
  MPV: 7.62 ± 0.63 fL
  PT: 13.79 s
  RBC: 7.177±0.276 M/µL
  Total BW change: 98.25 g
  Total Food Consumed: 1466 g
female, 1.0 mg/kg-day
  % BW Gain: 45.99%
  % Diff, % BW Gain: -5.73%
  % Diff, Total BW change: -6.27%
  % Diff, Total Food Consumed: 2.64%
  A/G: 1.13±0.06 ratio
  ABEOS: 0.086±0.028 K/µL
  ABNEUT: 1.468±0.616 K/µL
  ABRETi: 180.48±14.00 10^9/L
  ALB: 4.43 ± 0.26 g/dL
  ALPi: 52.1±13.7 U/L
  APTT: 20.13 s
  BUN: 13.9 ± 2.0 mg/dL
  CHOL: 94.3 ± 18.7 mg/dL
  GLOB: 3.94 ± 0.19 g/dL
  GLUC: 100.9 ± 12.7 mg/dL
  HCT: 41.13±1.98%
  HGB: 13.19 ± 0.73 g/dL
  Kidney Weight: 1.73 g
  Kidney/Body Weight: 0.59%
  Kidney/Brain Weight: 90.7%
  Liver Weight: 7.89 g
  Liver/Body Weight: 2.67%
  Liver/Brain Weight: 412%
  MPV: 7.59 ± 0.74 fL
  PT: 14.03 s
  RBC: 7.303±0.562 M/µL
  Total BW change: 94.80 g
  Total Food Consumed: 1444 g
female, 3.0 mg/kg-day
  % BW Gain: 47.09%
  % Diff, % BW Gain: -3.49%
  % Diff, Total BW change: -2.02%
  % Diff, Total Food Consumed: 7.48%
  A/G: 1.15±0.06 ratio
  ABEOS: 0.083±0.028 K/µL
  ABNEUT: 1.419±0.734 K/µL
  ABRETi: 176.48±43.69 10^9/L
  ALB: 4.56 ± 0.18 g/dL
  ALPi: 55.4±20.6 U/L
  APTT: 20.34 s
  BUN: 16.4 ± 1.3 mg/dL
  CHOL: 92.3 ± 16.3 mg/dL
  GLOB: 3.97 ± 0.13 g/dL
  GLUC: 104.4 ± 8.0 mg/dL
  HCT: 41.82±2.32%
  HGB: 13.37 ± 0.68 g/dL
  Kidney Weight: 1.83 g
  Kidney/Body Weight: 0.61%
  Kidney/Brain Weight: 91.1%
  Liver Weight: 7.96 g
  Liver/Body Weight: 2.67%
  Liver/Brain Weight: 396%
  MPV: 7.77 ± 0.42 fL
  PT: 14.15 s
  RBC: 7.262±0.327 M/µL
  Total BW change: 99.10 g
  Total Food Consumed: 1512 g
female, 10 mg/kg-day
  % BW Gain: 46.00%
  % Diff, % BW Gain: -5.72%
  % Diff, Total BW change: -5.60%
  % Diff, Total Food Consumed: 5.11%
  A/G: 1.17±0.07 ratio
  ABEOS: 0.081±0.022 K/µL
  ABNEUT: 1.562±1.084 K/µL
  ABRETi: 160.88±34.97 10^9/L
  ALB: 4.66 ± 0.39 g/dL
  ALPi: 50.5±7.3 U/L
  APTT: 22.50 s
  BUN: 19.1 ± 3.5 mg/dL
  CHOL: 77.7 ± 14.0 mg/dL
  GLOB: 3.98 ± 0.29 g/dL
  GLUC: 108.8 ± 12.0 mg/dL
  HCT: 41.08±2.03%
  HGB: 13.12 ± 0.63 g/dL
  Kidney Weight: 1.81 g
  Kidney/Body Weight: 0.62%
  Kidney/Brain Weight: 89.98%
  Liver Weight: 8.42 g
  Liver/Body Weight: 2.88%
  Liver/Brain Weight: 419%
  MPV: 7.80 ± 0.60 fL
  PT: 14.11 s
  RBC: 7.241±0.358 M/µL
  Total BW change: 95.48 g
  Total Food Consumed: 1479 g
female, 30 mg/kg-day
  % BW Gain: 52.06%
  % Diff, % BW Gain: 6.69%
  % Diff, Total BW change: 5.59%
  % Diff, Total Food Consumed: 8.40%
  ABEOS: 0.082±0.026 K/µL
  ABNEUT: 1.118±0.358 K/µL
  ABRETi: 164.87±31.05 10^9/L
  APTT: 22.09 s
  HCT: 40.37±2.37%
  HGB: 13.04 ± 0.72 g/dL
  Kidney Weight: 1.99 g
  Kidney/Body Weight: 0.65%
  Kidney/Brain Weight: 101%
  Liver Weight: 9.83 g
